According to article PMC7985445, “Characterization of Plasmodium falciparum Pantothenate Kinase and Identification of Its Inhibitors From Natural Products” (Frontiers in Cellular and Infection Microbiology, 2021):
Several values for one entry are separate records, joined by “and”; a condition that tells them apart may be missing. Equal values may be shown once. Read-outs that look alike come from different tables or passages of the source.

Experiments:
[1] = molecular target: T1, PfPanK1 (Plasmodium falciparum, UniProt Q8ILP4); assay type: biochemical
T1 sequence (Q8ILP4 1-519): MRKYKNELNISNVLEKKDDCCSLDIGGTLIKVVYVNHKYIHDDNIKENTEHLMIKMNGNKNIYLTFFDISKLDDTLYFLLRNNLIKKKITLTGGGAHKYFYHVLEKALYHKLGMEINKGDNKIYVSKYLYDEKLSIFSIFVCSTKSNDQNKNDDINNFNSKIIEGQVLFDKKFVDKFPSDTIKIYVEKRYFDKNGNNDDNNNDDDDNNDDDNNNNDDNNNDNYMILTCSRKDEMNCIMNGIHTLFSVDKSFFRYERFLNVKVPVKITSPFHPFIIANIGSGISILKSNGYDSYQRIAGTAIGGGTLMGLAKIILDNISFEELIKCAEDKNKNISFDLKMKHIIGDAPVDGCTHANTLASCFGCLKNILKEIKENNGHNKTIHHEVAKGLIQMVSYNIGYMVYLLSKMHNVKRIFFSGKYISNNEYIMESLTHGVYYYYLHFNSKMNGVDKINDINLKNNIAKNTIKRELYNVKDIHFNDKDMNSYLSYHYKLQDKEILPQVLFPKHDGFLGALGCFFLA

[2] = molecular target: T1, PfPanK1; test: Screening of natural compounds for PfPanK inhibitors and IC50 determination (recombinant enzyme, ADP Hunter Plus); assay type: biochemical
Protocol: We screened 247 compounds from the Kitasato Natural Products Library ([Mori et al., 2015]; [Nurkanto et al., 2018]) against PfPanK recombinant enzyme. Compounds were dissolved in 50% DMSO at a final concentration of 1 mg/ml.

[3] = test system: P. falciparum K1 and FCR3 strain; conditions: cited from earlier work
[4] = substrate pair pantetheine and ATP
[5] = substrate pair pantetheine and ATP, 120 µM ATP or 100 µM pantetheine, 37°C
[6] = substrate pair pantothenate and ATP
[7] = pantetheine as substrate, 100 μM ATP, pH 8.4, 37°C
[8] = primary screening; compound at 50 µM final concentration (methods: 50 µg/ml); 37°C, 2 h
[9] = metal ion 5 mM, substrate pantetheine, relative to MgCl2, pH 8.4, 37°C
[10] = metal ion 5 mM, substrate pantothenate, relative to MgCl2, pH 8.4, 37°C

## Nc1ncnc2c1ncn2[C@@H]1O[C@H](COP(=O)(O)OP(=O)(O)OP(=O)(O)O)[C@@H](O)[C@H]1O [ATP]
[1]
  K m: 59.3 ± 7.9 µM
[1]; pH 8.4
  Relative activity (%) Pantothenate: 100%
[1]; phosphoryl donor (NTP) 100 µM, substrate pantetheine, relative to ATP, pH 8.4, 37°C
  Relative activity (%) Pantetheine: 100%
[1]; [4]
  V max: 18.3 ± 3.0 µmol/min/mg
  k cat: 20.55 ± 0.9 s⁻¹
  k cat/K m: 26.6 ± 6.3 min^-1µM^-1
[1]; [5]
  K m: 43.4 ± 3.3 µM and 43.4 ± 3.4 µM
[1]; [6]
  V max: 15.9 ± 2.5 µmol/min/mg
  k cat: 16.1 ± 1.72 s⁻¹
  k cat/K m: 16.1 ± 1.0 min^-1µM^-1

## CC(=O)SCCNC(=O)CCNC(=O)[C@H](O)C(C)(C)COP(=O)(O)OP(=O)(O)OC[C@H]1O[C@@H](n2cnc3c(N)ncnc32)[C@H](O)[C@@H]1OP(=O)(O)O [Acetyl CoA]
[1]; [7]
  Effect on PfPanK1 activity: did not affect PfPanK1 activity
[1]; pantothenate as substrate
  IC50: > 1000 µM

## CC1(C)S[C@@H]2[C@H](NC(=O)[C@H](N)c3ccc(O)cc3)C(=O)N2[C@H]1C(=O)O [Amoxicillin]
[2]; primary screening; 37°C, 2 h
  inhibition: 45.7%

## CON1C(=O)[C@H]2NC(=O)[C@]13Oc1cc(O)c(Cl)cc1[C@@H]3SS2 [Aspirochlorine]
[2]; 2 h, primary screening; 37°C
  inhibition: 49.7%

## C/C=C\C=C\[C@@H]1O[C@](O)([C@H](CC)C(=O)NC/C=C/C=C(\C)[C@@H](OC)[C@@H](C)[C@@H]2O[C@H](/C=C/C=C/C=C(\C)C(=O)c3c(O)ccn(C)c3=O)[C@H](O)[C@@H]2O)[C@H](O)[C@H](O)C1(C)C [Aurodox]
[2]; [8]
  PfPanK1 Inhibition (%): 52.2%

## Nc1ccn([C@@H]2O[C@H](COP(=O)(O)OP(=O)(O)OP(=O)(O)O)[C@@H](O)[C@H]2O)c(=O)n1 [CTP]
[1]; pH 8.4
  Relative activity (%) Pantetheine: 11.3 ± 0.6%
  Relative activity (%) Pantothenate: 28.1 ± 2.8%

## [Ca+2].[Cl-].[Cl-] [CaCl2]
[1]; [9]
  Relative activity (%) Pantetheine: 30.5 ± 1.6%
[1]; [10]
  Relative activity (%) Pantothenate: 39.9 ± 4.7%

## Cc1nnc(SCC2=C(C(=O)O)N3C(=O)[C@@H](NC(=O)Cn4cnnn4)[C@H]3SC2)s1 [Cefazolin]
[2]; 2 h, primary screening; 37°C
  inhibition: 44.2%

## CC(C)(COP(=O)(O)OP(=O)(O)OC[C@H]1O[C@@H](n2cnc3c(N)ncnc32)[C@H](O)[C@@H]1OP(=O)(O)O)[C@@H](O)C(=O)NCCC(=O)NCCS [CoA, Coenzyme A]
[1]; pH 8.4
  Effect on PfPanK1 activity: inhibited
[1]; [7]
  Effect on PfPanK1 activity: inhibited

## [Cl-].[Cl-].[Co+2] [CoCl2]
[1]; pH 8.4, 37°C
  Relative activity (%) Pantetheine: 22.3 ± 1.0%
  Relative activity (%) Pantothenate: 25.8 ± 1.9%

## [Cl][Cu][Cl] [CuCl2]
[1]; [9]
  Relative activity (%) Pantetheine: 8.5 ± 1.3%
[1]; [10]
  Relative activity (%) Pantothenate: 16.4 ± 1.5%

## CC(=O)Oc1cccc2c(=O)c3c4c(c(=[N+]=[N-])c=3c(=O)c12)C(OC(C)=O)C(C)(OC(C)=O)C(OC(C)=O)C4OC(C)=O (stereo not drawn) [Diacetylkinamycin C]
[2]; primary screening; 37°C, 2 h
  inhibition: 96.1%
[2]; recombinant PfPanK1; mean ± SEM
  IC50: 36.2 ± 4.7 µM
[3]; FCR3 strain, ref Shimizu el al., 2019, unpublished, read-out: IC50 P. falciparum erythrocytic stages
  IC50: 1.1 µM
[3]; K1 strain, ref Shimizu el al., 2019, unpublished, read-out: IC50 P. falciparum erythrocytic stages
  IC50: 2.2 µM
[3]; range over drug-resistant K1 and drug-sensitive FCR3 strain, ref Shimizu et al., 2019, unpublished, read-out: IC50 against P. falciparum
  IC50: 1.1 to 2.2 µM

## CN[C@@H]1[C@H](O[C@H]2[C@H](O[C@H]3[C@H](O)[C@@H](O)[C@H](NC(=N)N)[C@@H](O)[C@@H]3NC(=N)N)O[C@@H](C)[C@]2(O)CO)O[C@@H](CO)[C@H](O)[C@H]1O [Dihydrostreptomycin]
[2]; 2 h, primary screening; 37°C
  inhibition: 44.7%

## CS[C@H]1SC[C@H]2C(=O)N(C)[C@@H](C(C)C)C(=O)OC[C@@H](NC(=O)c3cnc4ccccc4n3)C(=O)N[C@@H](C)C(=O)N(C)[C@@H]1C(=O)N(C)[C@@H](C(C)C)C(=O)OC[C@@H](NC(=O)c1cnc3ccccc3n1)C(=O)N[C@@H](C)C(=O)N2C [Echinomycin]
[2]; 2 h, primary screening; 37°C
  inhibition: 47.1%

## [Cl][Fe][Cl] [FeCl2]
[1]; [9]
  Relative activity (%) Pantetheine: 58.3 ± 3.3%
[1]; metal ion 5 mM, substrate pantetheine, relative to MgCl2, pH 8.4, 37°C, listed as Ferrous cation
  Relative activity (%) Pantetheine: approximately 60%
[1]; [10]
  Relative activity (%) Pantothenate: 104.7 ± 14.9%

## Nc1nc2c(ncn2[C@@H]2O[C@H](COP(=O)(O)OP(=O)(O)OP(=O)(O)O)[C@@H](O)[C@H]2O)c(=O)[nH]1 [GTP]
[1]; pH 8.4
  Relative activity (%) Pantetheine: 106.5 ± 4.4%
  Relative activity (%) Pantothenate: 107.6 ± 8.1%

## [Cl-].[K+] [KCl]
[1]; [9]
  Relative activity (%) Pantetheine: 33.6 ± 3.4%
[1]; [10]
  Relative activity (%) Pantothenate: 29.7 ± 2.3%

## CO[C@@H]1[C@@H](O[C@@H]2O[C@H](C)[C@@H](O[C@H]3C[C@@](C)(O)[C@@H](OC(=O)CC(C)C)[C@H](C)O3)[C@H](N(C)C)[C@H]2O)[C@@H](CC=O)C[C@@H](C)[C@@H](O)/C=C/C=C/C[C@@H](C)OC(=O)C[C@H]1OC(C)=O [Leucomycin A3]
[2]; 2 h, primary screening; 37°C
  inhibition: 40.1%

## [Cl-].[Li+] [LiCl2]
[1]; [9]
  Relative activity (%) Pantetheine: 32.6 ± 4.1%
[1]; [10]
  Relative activity (%) Pantothenate: 37.9 ± 9.6%

## CCC[C@@H]1C[C@@H](C(=O)N[C@@H]([C@H]2O[C@H](SC)[C@H](O)[C@@H](O)[C@H]2O)[C@@H](C)O)N(C)C1 [Lincomycin]
[2]; 2 h, primary screening; 37°C
  inhibition: 41.3%

## NC[C@@H]1O[C@H](O[C@H]2[C@@H](O)[C@H](O[C@@H]3[C@@H](O)[C@H](N)C[C@H](N)[C@H]3O[C@H]3O[C@H](CO)[C@@H](O)C[C@H]3N)O[C@@H]2CO)[C@H](N)[C@@H](O)[C@@H]1O[C@H]1O[C@H](CO)[C@@H](O)[C@H](O)[C@@H]1O [Lividomycin A]
[2]; 2 h, primary screening; 37°C
  inhibition: 44%

## [Cl-].[Cl-].[Mg+2] [MgCl2]
[1]; [9]
  Relative activity (%) Pantetheine: 100%
[1]; [10]
  Relative activity (%) Pantothenate: 100%

## [Cl][Mn][Cl] [MnCl2]
[1]; [9]
  Relative activity (%) Pantetheine: 55.3 ± 0.1%
[1]; [10]
  Relative activity (%) Pantothenate: 41.7 ± 8.4%

## [Cl-].[Na+] [NaCl]
[1]; pH 8.4
  Relative activity (%) Pantetheine: 33.1 ± 6.2%
  Relative activity (%) Pantothenate: 41.4 ± 5.3%

## [Cl][Ni][Cl] [NiCl2]
[1]; [9]
  Relative activity (%) Pantetheine: 41.4 ± 3.4%
[1]; [10]
  Relative activity (%) Pantothenate: 49.0 ± 5.5%

## CC(C)(CO)[C@@H](O)C(=O)NCCC(=O)NCCS [Pantetheine]
[1]; [4]
  V max: 19.6 ± 1.2 µmol/min/mg
  k cat: 19.52 ± 0.417 s⁻¹
  k cat/K m: 25.6 ± 0.7 min^-1µM^-1
[1]; [5]
  K m: 45.7 ± 6.9 µM

## CC(C)(CO)[C@@H](O)C(=O)NCCC(=O)O [Pantothenate]
[1]
  K m: 44.6 ± 5.6 µM
  k cat/K m: 19.1 ± 1.0 min^-1µM^-1
[1]; [6]
  V max: 14.2 ± 0.71 µmol/min/mg
  k cat: 14.2 ± 1.28 s⁻¹

## NC[C@H]1O[C@H](O[C@H]2[C@H](O[C@@H]3O[C@H](CO)[C@@H](O)[C@H]3O)[C@@H](O)[C@H](N)C[C@@H]2N)[C@H](N)[C@@H](O)[C@@H]1O [Ribostamycin]
[2]; 2 h, primary screening; 37°C
  inhibition: 46.6%

## CN[C@@H]1[C@H](O)[C@H](NC)[C@H]2O[C@@]3(O)C(=O)C[C@@H](C)O[C@H]3O[C@@H]2[C@H]1O [Spectinomycin (Actinospectacin), Spectinomycin]
[2]; [8]
  PfPanK1 Inhibition (%): 55.0%

## CN[C@@H]1[C@H](O)[C@H](NC)[C@H]2O[C@@]3(O)C(=O)C[C@@H](C)O[C@H]3O[C@@H]2[C@H]1O [Spectinomycin (Trobicin), Spectinomycin]
[2]; 2 h, primary screening; 37°C
  inhibition: 47.8%

## Cc1cn([C@H]2C[C@H](O)[C@@H](COP(=O)(O)OP(=O)(O)OP(=O)(O)O)O2)c(=O)[nH]c1=O [TTP]
[1]; pH 8.4
  Relative activity (%) Pantetheine: 0.0 ± 0.0%
  Relative activity (%) Pantothenate: 13.1 ± 1.0%

## C=C/C(C)=C/[C@@]1(C)SC(=O)C(C)=C1O [Thiolactomycin]
[2]; primary screening; 37°C, 2 h
  inhibition: 42.4%

## CC(/C=C/C(O)=C1/C(=O)CNC1=O)=C\[C@@H](C)[C@H]1O[C@@]2(C)O[C@H](C(=O)[C@H]3O[C@]32C)[C@@H]1C [Tirandamycin A]
[2]; [8]
  PfPanK1 Inhibition (%): 49.7%

## CC(/C=C/C(=O)NO)=C\[C@@H](C)C(=O)c1ccc(N(C)C)cc1 [Trichostatin]
[2]; primary screening; 37°C, 2 h
  inhibition: 47.2%

## O=c1ccn([C@@H]2O[C@H](COP(=O)(O)OP(=O)(O)OP(=O)(O)O)[C@@H](O)[C@H]2O)c(=O)[nH]1 [UTP]
[1]; pH 8.4
  Relative activity (%) Pantetheine: 23.8 ± 2.3%
  Relative activity (%) Pantothenate: 64.1 ± 1.0%

## [Cl-].[Cl-].[Zn+2] [ZnCl2]
[1]; [9]
  Relative activity (%) Pantetheine: 29.0 ± 0.6%
[1]; [10]
  Relative activity (%) Pantothenate: 35.6 ± 5.6%

## Nc1ncnc2c1ncn2[C@H]1C[C@H](O)[C@@H](COP(=O)(O)OP(=O)(O)OP(=O)(O)O)O1 [dATP]
[1]; pH 8.4
  Relative activity (%) Pantetheine: 8.5 ± 2.7%
  Relative activity (%) Pantothenate: 9.0 ± 2.2%

## CC(C)(CO)C(O)C(=O)NCCCO (stereo not drawn) [panthenol]
[1]; high concentrations of panthenol (e.g., 0.5 mM), regardless of the substrates
  Increase of enzyme activity: up to 40%
[1]; [7]
  Effect on PfPanK1 activity: did not inhibit PfPanK1 activity
[1]; pantothenate as substrate, 100 μM ATP, pH 8.4, 37°C
  Effect on PfPanK1 activity: did not inhibit PfPanK1 activity

## Gardimycin
[2]; [8]
  PfPanK1 Inhibition (%): 42.5%

## Gramicidin NF
[2]; [8]
  PfPanK1 Inhibition (%): 45.5%

## Thaimycin
[2]; [8]
  PfPanK1 Inhibition (%): 53.9%
